What was measured:
[1] = LC/MS quantification of serum fexaramine after PO or IP administration; format: in vivo, mice
Method: FIG. 1D is a schematic diagram illustrating an experimental procedure used to evaluate fexaramine, where mice were treated with vehicle or fexaramine (100 mg/kg) via PO or IP injection, and LC/MS quantification of serum fexaramine was conducted five days later.
FIG. 1E is a bar chart illustrating serum fexaramine concentrations after administration as described in FIG. 1D. Data represent mean values±STD. Statistical analysis was performed with the Student's t test (*p<0.05, **p<0.01).
Upon exploration of the in vivo effects of fexaramine (Fex) administration, it was discovered that due to ineffectual absorption, oral (PO) and intraperitoneal (IP) drug delivery produced very different effects (FIGS. 1D and 1E).

[2] = tested on: white adipose tissue (WAT); test: Inflammation, lipolysis and browning of white adipose tissue in Fex-treated DIO mice; format: in vivo
Method: Mice were fed on HFD for 14 weeks and subsequently subjected to daily PO injection of vehicle or fexaramine (100 mg/kg) for 5 weeks with HFD. In the bar graphs, open bars are vehicle, solid bars of fexaramine, and data represent the mean±STD. Statistical analysis was performed with the Student's t test (*p<0.05, **p<0.01).
FIG. 12F is a bar chart showing serum glycerol levels in vehicle or fexaramine-treated mice. Isoproterenol (1 μg/kg) was injected at 0 minutes and free glycerol levels were measured at the indicated time points. Data represent the mean±STD. Statistical analysis was performed with the Student's t test (*p<0.05, **p<0.01).
Mice fed a HFD for 14 weeks were maintained on a HFD and treated with vehicle or fexaramine (100 mg/kg/day os for 5 week). (I) Changes in genes associated with the browning of adipose tissue and (J) oxygen consumption rate of the stromal vascular fraction (SVF) from inguinal fat (iWAT). Data represent the mean±SD. Statistical analysis was performed with the Student's t test. *p<0.05, **p<0.01.
FIG. 13 is a set of digital images of gel electrophoreses (Western blots) showing the level of expression of various proteins in gonadal white adipose tissue (gWAT). Mice fed a HFD for 14 weeks were maintained on a HFD and treated with vehicle or fexaramine (50 mg or 100 mg/kg/day os for 5 week).
FIG. 14 is a bar chart showing that fexaramine reduces brown adipose tissue (BAT) inflammation. Mice fed a HFD for 14 weeks were maintained on a HFD and treated with vehicle or fexaramine (100 mg/kg/day os for 5 weeks). Expression of inflammatory cytokines in BAT. Data represent the mean±SD. Statistical analysis was performed with the Student's t test. *p<0.05, **p<0.01.
During obesity, adipose tissue expands by hyperplastic and/or hypertrophic growth, is chronically inflamed, and produces inflammatory cytokines that ultimately contribute to systemic metabolic dysregulation. […] These noncanonical IκB kinases were recently shown to play crucial roles in energy expenditure as a consequence of adipose tissue inflammation upon diet-induced obesity (Reilly et al., Nat Med 19:313-321, 2013).
Brown adipose-driven adaptive thermogenesis is fueled by mitochondrial oxidation of free fatty acids (FFAs) released from triglyceride stores into the circulation, predominantly by the action of hormone-sensitive lipase (HSL).

[3] = tested on: TGR5 null mice; test: Fexaramine in HFD-fed TGR5-null mice; format: in vivo; conditions: 100 mg/kg/day PO 5 weeks
Method: HFD-fed TGR5-null mice were treated with vehicle or fexaramine (100 mg/kg os daily for 5 weeks with HFD, n=10). (A) Ileal FXR target gene expressions (B) Serum BA levels (C) Fasting glucose levels (D) Glucose tolerance test (E) Core body temperature (F) Oxygen consumption rate (G) Carbon dioxide production (H) Gene expression in BAT (I) Body weight curve (J) Body composition by MRI (K) Insulin Tolerance Test (L) Hepatic gene expression (M) Hepatic TG levels (N) and Gene expression in soleus of TGR5 knockout mice with and without fexaramine treatment. Data represent the mean±SD. Statistical analysis was performed with the Student's t test. *p<0.05, **p<0.01.
To address this possibility, HFD-fed TGR5 null mice were chronically treated with Fex (100 mg/kg/day PO for 5 weeks). […] In particular, the anti-lipogenic effects of Fex in the liver appear to require TGR5 activation, as key hepatic lipogenic genes and liver triglyceride content were not affected by Fex treatment (FIGS. 11L, 11M).

[4] = molecular target: T1, human TGR5 (Homo sapiens, UniProt Q8TDU6); test: TGR5 cAMP-response element luciferase reporter in HEK293 cells; format: cell-based; conditions: HEK293 cells transfected with human TGR5, treated 5 hours
T1 construct: expressed in transfected cells; host or cells: HEK293
T1 sequence (Q8TDU6 1-330): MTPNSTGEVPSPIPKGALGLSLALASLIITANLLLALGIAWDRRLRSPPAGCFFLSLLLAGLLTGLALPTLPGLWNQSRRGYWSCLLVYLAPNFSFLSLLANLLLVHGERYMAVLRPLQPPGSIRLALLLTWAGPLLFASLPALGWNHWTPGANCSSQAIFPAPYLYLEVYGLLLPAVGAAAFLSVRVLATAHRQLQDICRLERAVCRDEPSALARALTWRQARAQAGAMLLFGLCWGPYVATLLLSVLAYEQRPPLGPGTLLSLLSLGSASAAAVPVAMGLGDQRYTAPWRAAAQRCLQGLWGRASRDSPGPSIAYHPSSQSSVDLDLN
Method: HEK293 cells were transfected with expression vectors for cAMP-response element luciferase, β-galactosidase and human TGR5. 24 hours after transfection, cells were treated with fexaramine or INT-777 (a TGR5 agonist)
at the indicated concentrations for 5 hours, prior to measurement of luciferase activity. Data represent the mean±SD. Statistical analysis was performed with the Student's t test. *p<0.05, **p<0.01.

In the case of `COC(=O)/C=C/c1cccc(N(Cc2ccc(-c3ccc(N(C)C)cc3)cc2)C(=O)C2CCCCC2)c1` [Fex, fexaramine], the serum Fex level after PO relative to IP levels ([1]; acute 100 mg/kg, PO compared to IP) is reported as 10%, the concentration at 5 days ([1]; mouse, serum, PO 100 mg/kg, read-out: serum levels of Fex after PO administration) is reported as < 25 nM and the “abundance of multi-locular, UCP1-expressing adipocytes in inguinal adipose tissue (immunohistochemistry)” value ([2]; 100 mg/kg PO 5 weeks) is reported as “substantial increase”. For the same compound, the “expression of TNFα, MCP-1, IL-1α and macrophage marker F4/80 in visceral and brown adipose depots” value ([2]; 100 mg/kg PO 5 weeks) was “reduced in visceral and brown adipose depots”, the “expression of "brown fat-like" signature genes in inguinal adipose tissue” value ([2]; 100 mg/kg/day 5 week) was “increased the expression” and the “respiratory capacity (oxygen consumption rate) of stromal vascular fraction from inguinal adipose tissue” value ([2]; 100 mg/kg/day 5 week) was “increased respiratory capacity”. The “S6K phosphorylation (mTORC1 pathway) in gonadal WAT” value ([2]; Western blot) was “reduced S6K phosphorylation”, the “levels of IKK-ε and TANK-binding kinase 1 (TBK1) in gWAT” value ([2]; Western blot) was “reduced levels” and the “HSL phosphorylation in adipose depots” value ([2]; chronic Fex treatment) was “pronounced increase”. The serum catecholamine levels ([2]; chronic Fex treatment) was “increased serum catecholamine levels”, the “serum levels of free fatty acids” value ([2]; chronic Fex treatment) was “pronounced increase” and the “β3-adrenergic receptor expression in gonadal adipose tissue” value ([2]; chronic Fex treatment) was “increased”. For the same compound, the “cross-sectional area of adipocytes in visceral depots (gonadal and mesenteric)” value ([2]; chronic Fex-treatment) was “markedly reduced”, the “FXR target genes in ileum including FGF15” value [3] was “induced multiple FXR target genes” and the “core body temperature and metabolic rate” value [3] was “somewhat blunted increases”. For the same compound, the “fasting glucose levels and glucose tolerance” value [3] was “moderate improvements”, the “key hepatic lipogenic genes and liver triglyceride content” value [3] was “not affected” and the “serum BA levels” value [3] was “lowered serum BA levels”. The “weight gain or insulin sensitivity” value [3] was “no significant changes”, the “TGR5 activation (luciferase activity)” value [4] was “does not activate” and the “TGR5 activation (luciferase activity)” value ([4]; listed as fexaramine) was “fails to activate TGR5”.
